Assay results as given in patent US8592421B2, “Cyclic bioisosters of purine system derivatives and a pharmaceutical composition based thereon” (priority 2003, dated 2013).

Key:
[1] = tested on: thrombocytes; experiment: ADP-induced aggregation of thrombocytes in vitro (Born method, plasma enriched with thrombocytes); format: cell-based, rabbit; settings: 3-minute incubation, ADP 10^−5 M
Method: The aggregation of thrombocytes was studied by the Born method based on determination of the changes in the optical density of plasma enriched with thrombocytes after its incubation with an aggregation inductor.
Adenozinediphosphoric acid (ADP) was selected as an aggregation inductor, which in fact is an aggregation generator. Use was made of a sample (registration number 885) of the Sigma Diagnostics Company (USA) in final concentration of 10^−5 M.
The experiments were carried out on male rabbits of the “Chinchilla” breed having a mass of 2.7±0.3 kg. 18-24 hours prior to the experiment they were deprived of feed while preserving free access to water.
To obtain plasma enriched with thrombocytes, blood was taken from a cut of a marginal vein of the rabbit ear, the sample was stabilized with 3.8% of sodium citrate solution in a ratio of 9:1 and centrifuged at 200 g (1000 rev/min) for 10 minutes. The top supernatant layer enriched with thrombocytes was transferred by an automatic dropper into a silicone test tube and kept at 37° C. The plasma enriched with thrombocytes contained, on the average, […]. If this content exceeded the specified 3×10^8 blood platelets in 1 liter, this sample was diluted to the necessary concentration with plasma deprived of thrombocytes, which was obtained by centrifuging blood at 650 g during 10 minutes.
The measurements of the optical density of the samples were made on two-channel aggregometer of the “Chronolog” Company (USA). A flask containing 490 mkl of plasma rich with thrombocytes was placed in a device, into which a magnetic agitator covered with Teflon was lowered. The index of maximum amplitude of aggregation (MA) in percent of a fall of the plasma optical density under effect of the aggregation inductor was recorded. The control index MA of plasma was compared with the MA of plasma incubated for 3 minutes with different concentrations of the compounds: from 10^−3 to 10^−7 in vitro experiments or with plasma obtained 15, 30, 60 and 120 minutes after intravenous administration of different doses of the compounds in vivo experiments.
The process of aggregation of thrombocytes was recorded with the help of a computer; on the monitor screen the there were depicted curves reflecting changes of the optical density of the plasma enriched which was taken as a standard 100% compared to the optical density of the non-thrombocyte plasma taken for 0% content of thrombocytes.
Under in vitro conditions a flask was filled with blood plasma enriched with thrombocytes, to which an aggregation inductor ADP was added at a concentration of 10^−5 M, incubated for 3 minutes, and then the compounds according to the invention were introduced directly into the flask. Their action by aggregation of thrombocytes was studied after 3-minute incubation in a wide range of concentrations from 10^−3 to 10^−7 M to minimum concentration of 10^−7M not inducing no effect of suppressing the aggregation.

[2] = tested on: plasma hemostasis; experiment: Prothrombin time after intravenous administration; format: in vivo, rabbit; settings: for effect on the prothrombin time index: doses of 15.0, 30.0, 60.0 mg/kg
Method: The static parameters of the blood and plasma coagulation (partial activated thromboplastin time, thrombin time, maximum coagulation activity (test for auto coagulation) were determined using the Behnk Electronic coagulometer (Germany). The operating principle of this instrument is based on the fact that the formed blood clot breaks the contacts of the pulse counter in the flask-pin circuit, said pin permanently oscillating in a vertical plane. The moment of formation of the clot is registered by stopping the stop watch hand.
The measurements were effected at a constant temperature of 37° C. maintained by a temperature control unit.
The method of its determination is based on estimation of the coagulation of citrate or oxalic blood plasma, when it is mixed with thromboplastin and a calcium chloride solution. Since under these conditions the time of formation of the clot depends on the content of II, VII, IX and X factors in the investigated plasma sample, now the test is called “thromboplastin time by Quick” or “activity thromboplastin complex”.
Citrate blood containing 1 part of citrate per 9 parts of native blood was centrifuged at 3000 rev/min for 10 minutes to obtain plasma deprived of thrombocytes.
Added into a test tube in a water bath were 0.1 ml of plasma and 0.1 ml of a thromboplastin solution.

[3] = Morphine abstinence model: thymus condition (mass, nitrites); format: in vivo, rats; settings: for Nitrites in thymus supernatant: control 0.331 ± 0.041; for Thymus mass: control 230 ± 14
Description: The spectrometric method is based the reaction of nitrites with the Griss reagent (a mixture of 2% solution of sulfanilamide and 0.2% N-(1-naphthyl)ethylene diamine. At the first step the nitrite reacts with sulfanilamide with formation of diazonium salt, and then with the second component to form azo dye with an adsorption maximum at 540 nm. For reduction of nitrates into nitrites, a fermentative method was used with bacterial reductase nitrate (Grisham M. B. et al., 1995). The samples of plasma and supernathant of the liver deproteinizated at 100° C. for 5 minutes incubated for 30 minutes at 37° C. in 50.0 mM of HEPES pH 7.4 in the presence of 0.2 unit/ml of Aspergillus reductase nitrate, 5.0 mkM of FAD and 0.1 mM of NAD-Ph. At the end of the reaction lactate dehydrogenase and pyruvate were added for isolation of NAD-Ph interfering with the Griss reaction. Then the Griss reagent was added and after 10-minute incubation the light absorption of the samples was measured at 540 nm. To amount of NOX^− was calculated using sodium nitrate as a standard.
The effect of the compounds according to the invention on the condition of the thymus of the rats was also investigated: a control group, an experimental group of morphinized animals and an experimental group of animals were first morphinized and then injected with the compounds according to the invention. The experiment was carried out similarly to that described above.

[4] = tested on: synthase of nitrogen oxide (NOC); experiment: Morphine abstinence model: activity of synthase of nitrogen oxide (NOC), radiometric [3H]L-citrulline method; format: in vivo, rats Wistar; settings: 20.0 mg/kg intramuscularly; for Activity of NOC: Mesencephalon: control 2.18 ± 0.09; for Activity of NOC: Hypothalamus: control 5.37 ± 0.20
[5] = 15.0 mg/kg intravenously, after 15 minutes, control 11.8 ± 0.1
[6] = 15.0 mg/kg intravenously, after 30 minutes, control 11.8 ± 0.1
[7] = 15.0 mg/kg intravenously, after 60 minutes, control 11.8 ± 0.1
[8] = 15.0 mg/kg intravenously, after 120 minutes, control 11.8 ± 0.1
[9] = 30.0 mg/kg intravenously, after 15 minutes, control 11.2 ± 0.1
[10] = 30.0 mg/kg intravenously, after 30 minutes, control 11.2 ± 0.1
[11] = 30.0 mg/kg intravenously, after 60 minutes, control 11.2 ± 0.1
[12] = 30.0 mg/kg intravenously, after 120 minutes, control 11.2 ± 0.1
[13] = 60.0 mg/kg intravenously, after 15 minutes, control 12.0 ± 0.1
[14] = 60.0 mg/kg intravenously, after 30 minutes, control 12.0 ± 0.1
[15] = 60.0 mg/kg intravenously, after 60 minutes, control 12.0 ± 0.1
[16] = 60.0 mg/kg intravenously, after 120 minutes, control 12.0 ± 0.1
[17] = Administration of morphine and compound

| Compound | MA - fall of optical density of plasma, % to the standard ([1]; 10^−3 M, control 60.8 ± 3.4) [%] | MA - fall of optical density of plasma, % to the standard ([1]; 10^−4 M, control 60.0 ± 2.1) [%] | MA - fall of optical density of plasma, % to the standard ([1]; 10^−5 M, control 52.5 ± 2.1) [%] | MA - drop of optical density, % ([1]; 10^−6 M, control 52.8 ± 1.8) [%] | MA - drop of optical density, % ([1]; 10^−7 M, control 51.5 ± 2.1) [%] | prothrombin time, T [2, 5] [s] | prothrombin time, T [2, 6] [s] | prothrombin time, T [2, 7] [s] | prothrombin time, T [2, 8] [s] | prothrombin time, T [2, 9] [s] | prothrombin time, T [2, 10] [s] | prothrombin time, T [2, 11] [s] | prothrombin time, T [2, 12] [s] | prothrombin time, T [2, 13] [s] | prothrombin time, T [2, 14] [s] | prothrombin time, T [2, 15] [s] | prothrombin time, T [2, 16] [s] | effect on the prothrombin time index [2] | Nitrites in thymus supernatant ([3]; Administration of compounds) | Thymus mass ([3]; Administration of compounds) [mg] | also measured |
| --- | --- | --- | --- | --- | --- | --- | --- | --- | --- | --- | --- | --- | --- | --- | --- | --- | --- | --- | --- | --- | --- |
| Nc1ccnc2c(=O)n([C@@H]3O[C@H](CO)[C@@H](O)[C@H]3O)[nH]c(=O)c12 [Compound 2, 4-amino-7-(β-D-ribofuranosile)pyrido[2,3-d]-6H-pyridazine-5,8-dione] | 51.4 ± 2.7 | 50.4 ± 1.7 | 48.2 ± 1.0 | 50.1 ± 2.0 | 50.8 ± 2.2 | 11.7 ± 0.2 | 11.5 ± 0.2 | 11.4 ± 0.2 | 11.7 ± 0.1 | 11.1 ± 0.2 | 11.0 ± 0.1 | 11.3 ± 0.1 | 11.2 ± 0.2 | 12.0 ± 0.1 | 11.9 ± 0.2 | 12.1 ± 0.2 | 11.9 ± 0.1 | have no effect on the prothrombin time index | – | – | – |
| O=c1[nH][nH]c(=O)c2ncccc12.[Li] [Compound 6, lithium salt of pyrido[2,3-d]-6H-pyridazine-5,8-dione] | 50.0 ± 1.9 | 53.3 ± 2.2 | 47.4 ± 2.0 | 51.2 ± 3.2 | 50.7 ± 3.2 | – | – | – | – | – | – | – | – | – | – | – | – | – | 0.424 ± 0.04 nmol/mg of protein | 242 ± 17 | Nitrites in thymus supernatant [3, 17]: 0.419 ± 0.02 nmol/mg of protein; Thymus mass [3, 17]: 207 ± 14 mg; Activity of NOC: Mesencephalon ([4]; Control + Compound): 2.84 ± 0.31 pmol/min/mg of protein; Activity of NOC: Hypothalamus ([4]; Control + Compound): 5.93 ± 0.27 pmol/min/mg of protein; Activity of NOC: Mesencephalon ([4]; Control + Morphine + compound): 1.99 ± 0.31 pmol/min/mg of protein; Activity of NOC: Hypothalamus ([4]; Control + Morphine + compound): 5.24 ± 0.24 pmol/min/mg of protein |
| Nc1cnc2c(=O)n([C@@H]3O[C@H](CO)[C@@H](O)[C@H]3O)[nH]c(=O)c2n1.[Na] [Compound 21, sodium salt of 3-amino-7-(β-D-ribofuranosile)pyrazine[2,3-d]-6H-pyridazine-5,8-dione] | 47.1 ± 3.0 | 49.2 ± 2.1 | 41.8 ± 2.4 | 49.6 ± 1.7 | 49.7 ± 2.1 | 11.4 ± 0.2 | 11.5 ± 0.1 | 11.3 ± 0.1 | 11.5 ± 0.2 | 11.2 ± 0.1 | 11.2 ± 0.1 | 11.3 ± 0.2 | 11.2 ± 0.2 | 12.0 ± 0.2 | 11.8 ± 0.1 | 12.1 ± 0.1 | 12.0 ± 0.2 | have no effect on the prothrombin time index | – | – | – |
| O=c1[nH][nH]c(=O)c2nccnc12.[Li] [Compound 25, lithium salt of pyrazine[2,3-d]-6H-pyridazine-5,8-dione] | 48.2 ± 2.9 | 48.6 ± 2.0 | 43.4 ± 3.2 | 50.3 ± 2.1 | 50.1 ± 3.0 | – | – | – | – | – | – | – | – | – | – | – | – | – | 0.417 ± 0.02 nmol/mg of protein | 254 ± 14 | Nitrites in thymus supernatant [3, 17]: 0.396 ± 0.02 nmol/mg of protein; Thymus mass [3, 17]: 218 ± 17 mg; Activity of NOC: Mesencephalon ([4]; Control + Compound): 2.65 ± 0.43 pmol/min/mg of protein; Activity of NOC: Hypothalamus ([4]; Control + Compound): 5.88 ± 0.27 pmol/min/mg of protein; Activity of NOC: Mesencephalon ([4]; Control + Morphine + compound): 1.97 ± 0.27 pmol/min/mg of protein; Activity of NOC: Hypothalamus ([4]; Control + Morphine + compound): 5.23 ± 0.27 pmol/min/mg of protein |
| Nc1ncc2c(=O)[nH][nH]c(=O)c2n1 [Compound 36, 2-amino-pyrimido[4,5-d]-6H-pyridazine-5,8-dione] | 45.8 ± 2.3 | 46.9 ± 2.4 | 40.1 ± 2.0 | 49.3 ± 2.6 | 49.7 ± 1.8 | – | – | – | – | – | – | – | – | – | – | – | – | – | – | – | – |
